Several values for one entry are separate records, joined by “and”; a condition that tells them apart may be missing. Equal entries are not always repeated. Marks after values point to notes of the source that are not given here. No end group written: not given here.
How the values were obtained:
[1] = tested on: ethanol-induced gastric ulcer model in mice; assay: Anti-ulcer activity of single administration in ethanol-induced model in mice; type: in vivo, C57BL/6 mice; settings: single administration by gavage, 0.2 mg/kg, 1 h before absolute ethanol; relative to compound of SEQ ID NO: 1
Description: 1. Experimental animal: SPF grade C57BL/6 mice, from Chengdu Yaokang Shengwu Keji Youxian Gongsi, animal license number: SCXK (Chuan) 2020-034.
After adaptive feeding, all the animals were fasted for 24 h with free access to water after administration one day before the experiment. Before modeling, the experimental mice were randomly divided into groups: blank group (5 mice), model group (10 mice), and treatment groups (10 mice per group). Except for the blank group and the model group, which were given sterile water by gavage, the treatment groups were administered with different test compounds by gavage at a dose of 0.2 mg/kg, respectively. One hour after administration, the mice received 0.9 ml/kg absolute ethanol by oral gavage for modeling. After 1 h, the animals were sacrificed by cervical dislocation, the gastric cardia was ligated, the pylorus was occluded, and the whole stomach was removed. 1 mL of 1% formaldehyde solution was injected into the gastric lumen, the cardia was ligated, and the stomach was taken out and immediately immersed in 1% formaldehyde solution. After 30 min, the stomach tissue was taken out and cut open along the greater curvature. The content of the stomach was rinsed off with normal saline, the injury of gastric mucosa in mice were observed and measured after being laid flat, and the ulcer index and ulcer inhibition rate were calculated.
Calculation method for ulcer index: If the length of cord-like injury was greater than 1 mm, the length thereof was measured, with 1 point per millimeter; if the width thereof was greater than 1 mm, the score thereof was doubled according to the number of millimeters of the width; and if the length was less than 1 mm, a score of 0.5 was given, and the scores were added to obtain the ulcer index of the animal. • Ulcer inhibition rate=(ulcer index of model group-ulcer index of treatment group)/ulcer index of model group*100%; and • Relative ulcer inhibition rate=(ulcer inhibition rate of test compound)/(ulcer inhibition rate of Compound 1).

[2] = Gastric and intestinal stability test of polypeptide samples; type: in vitro ADME; settings: 37° C., 1 hour, HPLC peak area; for W Retained %: artificial gastric juice (W); for X Retained %: artificial intestinal juice (X); for O Retained %: hydrogen peroxide solution (O); for I Retained %: povidone-iodine solution (I)
Description: Method: 1 mg of each of the samples to be tested (Compounds 1, 26, 27 and 28 and EGF) were taken and dissolved in 1 ml of water. 100 ul of sample solution was taken, 900 ul of water was added, and they were uniformly mixed, as a control solution. 100 ul of each sample solution was taken, and 900 ul of artificial gastric juice (W), artificial intestinal juice (X), povidone-iodine solution (I), and hydrogen peroxide solution (O) were respectively added. The solution was placed in a constant temperature water bath at 37° C. for 1 hour, and left to stand for cooling and filtering, as a test solution. The peak areas of the sample before and after treatment were respectively detected by high performance liquid chromatography, and the experimental results were compared based on the peak areas of the samples. The original solution without any treatment after being diluted with water was used as a control, and the changes in the peak areas (contents) of test solutions at corresponding positions were compared and counted.

[3] = tested on: ethanol-induced gastric ulcer in mice; assay: Ethanol-induced gastric ulcer in mice, administration once a day for 8 days; type: in vivo, C57BL/6 mice; settings: absolute ethanol, gavage once a day for 8 days, SEQ ID NO: 1 1 mg/kg, teprenone 160 mg/kg, n = 10, x ± s
Description: 1. Experimental animal: SPF grade C57BL/6 mice, from Chengdu Yaokang Biotechnology Ltd, animal license number: SCXK (Chuan) 2020-034.
2. Method: After adaptive feeding, the mice were randomly divided into four groups with 10 mice in each group, namely, control group (normal group), model group (modeling with absolute ethanol), positive drug group (teprenone 160 mg/kg) and SEQ ID NO: 1 group (1 mg/kg). After the animals were grouped, the control group and model group were treated with pure water, and the other dosed groups were treated with the corresponding drugs once a day for 8 consecutive days. On the 7th day, after treatment, all the animals were fasted for 24 h with free access to water. […] The stomach was cut open along the greater curvature, the content of the stomach was cleaned off with normal saline, and the ulcer index was calculated after being laid flat. Calculation method for ulcer index: If the length of cord-like injury was greater than 1 mm, the length thereof was measured, with 1 point per millimeter; if the width thereof was greater than 1 mm, the score thereof was doubled according to the number of millimeters of the width; and if the length was less than 1 mm, a score of 0.5 was given, and the scores were added up to obtain the ulcer index of the animal.

[4] = tested on: aspirin-induced gastric ulcer in rats; assay: Aspirin-induced gastric ulcer in rats; type: in vivo, SD rats
Description: Method: After adaptive feeding, SD rats were divided into three groups (10 rats in each group) by Excel-based complete randomization, namely, a control group, a model group, and a the compound of SEQ ID NO: 1 (0.3 mg/kg) group. After the animals were grouped, they were given corresponding treatments (the control group and the model group were given the same volume of purified water, and the SEQ ID NO: 1 group was given corresponding drug treatment) once a day for 8 consecutive days. On the 7th day after administration, all the animals were fasted for 24 h with free access to water. On the 8th day, except for the control group, the rats in the SEQ ID NO: 1 group and the model group were orally given 250 mg/kg aspirin solution for modeling 30 min after compound administration (or given water). 4 h after modeling, the animals were sacrificed, the cardia was ligated, the pylorus was occluded, and the whole stomach was removed. 8 mL of 1% formaldehyde solution was injected into the gastric lumen, the pylorus was ligated, and the stomach was taken out and immediately immersed in 1% formaldehyde solution for fixation. After 30 min, the stomach was cut open along the greater curvature, the content of the stomach was cleaned off with normal saline, and after the stomach was laid flat, the stomach was observed, and panoramic photos were taken to measure the ulcer area.

[5] = tested on: subintestinal vascular branches of zebrafish; assay: Repair of simvastatin-induced vascular injury in zebrafish; type: in vivo; settings: 500 ng/fish intravenous injection, 28° C., 2 days
Excerpt: Method: The blood vessels of transgenic vascular green fluorescent zebrafish (Fli-1) were labeled by green fluorescent protein, which was clearly visible under a fluorescence microscope (FIG. 9, the dotted frame in FIG. 9 (yellow in the original picture) was the intestinal blood vessel at the analysis site, and the arrow (white in the original picture) pointed to subintestinal vascular branches), and it became a model organism for observing vascular change. Zebrafish Fli-1 was naturally mated in pairs for breeding. Zebrafish Fli-1 was randomly selected and placed in a 6-well plate one day after fertilization, with 30 fish per well (experimental group). The zebrafish in the normal control group were treated with standard dilution water, and each of the other experimental groups was induced with aqueous simvastatin for 3 hours to establish a zebrafish microvascular loss model. After 3 hours, the aqueous solutions in all the groups were replaced with standard dilution water, and simvastatin induction was terminated. […] Ten zebrafish in each group were randomly selected and photographed under the fluorescence microscope. NIS-Elements D 3.20 advanced image processing software was used for analysis and data collection, and the number of subintestinal vascular branches was analyzed.

| Substance | Anti-ulcer activity (mean relative ulcer inhibition rate) [1] | other results |
| --- | --- | --- |
| Pro-Val-Pro-Leu (PVPL) [SEQ ID NO: 32] | +++ (relative ulcer inhibition rate 0.9-1.20, denoted as “+++”) |  |
| AEPVPLVKQD [SEQ ID NO: 27] | +++ (relative ulcer inhibition rate 0.9-1.20, denoted as “+++”) | W Retained % [2]: 100% and 97%; X Retained % [2]: 0%; O Retained % [2]: 100% and 101%; I Retained % [2]: 100% |
| PAAEPVPLVKQN [SEQ ID NO: 50] | / (0< relative ulcer inhibition rate <0.3, denoted as “/” (very low activity)) |  |
| AEPVPL [SEQ ID NO: 30] | +++ (relative ulcer inhibition rate 0.9-1.20, denoted as “+++”) |  |
| teprenone |  | Ulcer index [3]: 13.42 ± 7.61 |
| EPVPLVKQD [SEQ ID NO: 38] | +++ (relative ulcer inhibition rate 0.9-1.20, denoted as “+++”) |  |
| PAAEPVPLIKQD [SEQ ID NO: 64] | + (relative ulcer inhibition rate 0.3-0.6, denoted as “+”) |  |
| Pro-Ala-Ala-Glu-Pro (PAAEP) [SEQ ID NO: 35] | + (relative ulcer inhibition rate 0.3-0.6, denoted as “+”) |  |
| PAAVPVPLVKQD [SEQ ID NO: 67] | + (relative ulcer inhibition rate 0.3-0.6, denoted as “+”) |  |
| PAAQPVPLVKQD [SEQ ID NO: 10] | ++++ (Relative ulcer inhibition rate >1.20, denoted as “++++”) |  |
| PAAEPV [SEQ ID NO: 34] | / (0< relative ulcer inhibition rate <0.3, denoted as “/” (very low activity)) |  |
| PAADPVPLVKQD [SEQ ID NO: 11] | ++ (relative ulcer inhibition rate 0.6-0.9, denoted as “++”) |  |
| PAAEPVPFVKQD [SEQ ID NO: 12] | / (0< relative ulcer inhibition rate <0.3, denoted as “/” (very low activity)) |  |
| PAAEPVPLVKQE [SEQ ID NO: 60] | + (relative ulcer inhibition rate 0.3-0.6, denoted as “+”) |  |
| PAAEPVPLVKND [SEQ ID NO: 58] | / (0< relative ulcer inhibition rate <0.3, denoted as “/” (very low activity)) |  |
| PAAEGVGLVKQD [SEQ ID NO: 8] | + (relative ulcer inhibition rate 0.3-0.6, denoted as “+”) |  |
| SEQ ID NO. 1 (PAAEPVPLVKQD) |  | Ulcer area ([4]; rats, 0.3 mg/kg gavage once a day for 8 days, aspirin 250 mg/kg): 20.55 ± 10.45** mm^2 |
| Ala-Glu-Pro-Val-Pro (AEPVP) [SEQ ID NO: 44] | + (relative ulcer inhibition rate 0.3-0.6, denoted as “+”) |  |
| Ala-Glu-Pro-Val (AEPV) [SEQ ID NO: 45] | − (relative ulcer inhibition rate <0, denoted as “−”) |  |
| PAGEPVPLVKQD [SEQ ID NO: 48] | ++ (relative ulcer inhibition rate 0.6-0.9, denoted as “++”) |  |
| PIAEPVPLVKQD [SEQ ID NO: 56] | − (relative ulcer inhibition rate <0, denoted as “−”) |  |
| PVPLVKQD [SEQ ID NO: 28] | +++ (relative ulcer inhibition rate 0.9-1.20, denoted as “+++”) | W Retained % [2]: 100% and 96%; X Retained % [2]: 0%; O Retained % [2]: 100% and 99%; I Retained % [2]: 100% and 99% |
| Val-Pro-Leu-Val (VPLV) [SEQ ID NO: 73] | ++ (relative ulcer inhibition rate 0.6-0.9, denoted as “++”) |  |
| PAAEPVPLVK [SEQ ID NO: 3] | +++ (relative ulcer inhibition rate 0.9-1.20, denoted as “+++”) |  |
| PAAEPVPLVKED [SEQ ID NO: 57] | ++ (relative ulcer inhibition rate 0.6-0.9, denoted as “++”) |  |
| Glu-Pro-Val-Pro-Leu (EPVPL) [SEQ ID NO: 31] | +++ (relative ulcer inhibition rate 0.9-1.20, denoted as “+++”) |  |
| PAAEPVPLVKQD [SEQ ID NO: 1, Pro-Ala-Ala-Glu-Pro-Val-Pro-Leu-Val-Lys-Gln-Asp] |  | weight change ([4]; 0.3 mg/kg oral gavage once a day for 8 consecutive days): no obvious effects |
| PAAEPVPL [SEQ ID NO: 26] | +++ (relative ulcer inhibition rate 0.9-1.20, denoted as “+++”) | subintestinal microvascular loss caused by simvastatin / number of subintestinal vascular branches [5]: significantly reverse; W Retained % [2]: 100%; O Retained % [2]: 100% and 102%; I Retained % [2]: 100% and 101% |
